According to US4206215A, “Antimicrobial bis-[4-(substituted-amino)-1-pyridinium]alkanes” (Sterling Drug Inc., priority 1977, dated 1980):
Like-named read-outs stand apart in the source and are kept apart here.

Experiments:
A. niger 16404 = experiment: In vitro antifungal activity, MIC (modified Autotiter method); format: cell-based, Aspergillus niger; details: 18-20 hours at 37° C.; for MIC: Aspergillus niger, 16404, 20 h, read-out: MIC A. niger 16404
Method in brief: (§1)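 Final drug range: 500 → 0.06 mcg./ml., twofold decrements, in inoculated semisynthetic glucose medium. Dilution performed by Autotiter transfer loops in sterile water from a 1,000 mcg./ml. compound solution.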

Ps. aerug. MGH-2 = experiment: In vitro antibacterial activity, MIC (modified Autotiter method); format: cell-based, Pseudomonas aeruginosa; details: 18-20 hours at 37° C.; for MIC: Pseudomonas aeruginosa, 20 h, read-out: MIC Ps. aerug. MGH-2
Method in brief: as §1

S. Aureus Smith = experiment: as above; format: cell-based, Staphylococcus aureus; details: 18-20 hours at 37° C.; for MIC: Staphylococcus aureus, 20 h, read-out: MIC S. Aureus Smith
Method in brief: as §1

S. Aureus ATCC 6538 = experiment: Effect of serum on bacteriostatic activity (serial tube dilution test); format: cell-based, Staphyloccocus aureus; details: for Fold Increase in MIC S. Aureus ATCC 6538: 40% vs 0% horse serum; for MIC: Staphylococcus aureus, ATCC6538
Protocol: (§2) Antibacterial effectiveness in the presence of serum was determined for representative examples by the standard serial tube dilution test wherein paired comparisons of minimum inhibitory concentrations (MIC) were determined in the absence and in the presence of heat inactivated (30 min. at 56° C.) horse serum (40%) in the test medium. The results are expressed as the fold increase in MIC (mcg./ml.) versus Staphyloccocus aureus and Escherichia coli caused by the presence of serum and are presented in Table B hereinbelow.

E. coli AB1932-1 = experiment: In vitro antibacterial activity, MIC (modified Autotiter method); format: cell-based, Escherichia coli; details: 18-20 hours at 37° C.; for MIC: Escherichia coli, AB19321, 20 h, read-out: MIC E. coli AB1932-1
Method in brief: as §1

E. coli Vogel = experiment: as above; format: cell-based, Escherichia coli; details: 18-20 hours at 37° C.; for MIC: Escherichia coli, 20 h, read-out: MIC E. coli Vogel
Method in brief: as §1

E. coli 100/B22 = experiment: as above; format: cell-based, Escherichia coli; details: for MIC: Escherichia coli, 100/B22, 20 h, read-out: MIC E. coli 100/B22, 18-20 hours at 37° C.
Method in brief: as §1

S. pyogen. C203 = experiment: as above; format: cell-based, Streptococcus pyogenes; details: 18-20 hours at 37° C.; for MIC: Streptococcus pyogenes, 20 h, read-out: MIC S. pyogen. C203
Method in brief: as §1

T. menta. 9129 = experiment: In vitro antifungal activity, MIC (modified Autotiter method); format: cell-based, Trichophyton mentagrophytes; details: 18-20 hours at 37° C.; for MIC: Trichophyton mentagrophytes, 20 h, read-out: MIC T. menta. 9129
Method in brief: as §1

P. mirab. MGH-1 = experiment: In vitro antibacterial activity, MIC (modified Autotiter method); format: cell-based, Proteus mirabilis; details: 18-20 hours at 37° C.; for MIC: Proteus mirabilis, 20 h, read-out: MIC P. mirab. MGH-1
Method in brief: as §1

[1] = system: young adult male Swiss-Webster strain albino mice; experiment: Acute oral toxicity (ALD50); format: in vivo
Protocol: (§3) The acute oral toxicity (ALD50) of several representative examples was determined as follows: Groups of 3 young adult male Swiss-Webster strain albino mice were fasted approximately 4 hours before medication and then medicated once orally by stomach tube.

[2] = Acute oral toxicity (ALD50); format: in vivo; details: mouse, in vivo, po, mice, read-out: 7-Day ALD50
Protocol: as §3

C. albicans Wisc. = experiment: In vitro antifungal activity, MIC (modified Autotiter method); format: cell-based, Candida albicans; details: 18-20 hours at 37° C.; for MIC: Candida albicans, 20 h, read-out: MIC C. albicans Wisc.
Method in brief: as §1

C. albicans 10231 = experiment: as above; format: cell-based, Candida albicans; details: 18-20 hours at 37° C.; for MIC: Candida albicans, 10231, 20 h, read-out: MIC C. albicans 10231
Method in brief: as §1

E. Coli ATCC 8739 = experiment: Effect of serum on bacteriostatic activity (serial tube dilution test); format: cell-based, Escherichia coli; details: for Fold Increase in MIC E. Coli ATCC 8739: 40% vs 0% horse serum; for MIC: Escherichia coli, ATCC8739
Protocol: as §2

K. pneum. 39645 = experiment: In vitro antibacterial activity, MIC (modified Autotiter method); format: cell-based, Klebsiella pneumoniae; details: 18-20 hours at 37° C.; for MIC: Klebsiella pneumoniae, 20 h, read-out: MIC K. pneum. 39645
Method in brief: as §1

[3] = 40% heat inactivated horse serum, read-out: MIC S. Aureus ATCC 6538 40% Serum
[4] = read-out: MIC S. Aureus ATCC 6538 0% Serum
[5] = 125 mg/kg oral, suspension in 1% G.T.
[6] = 250 mg/kg oral, suspension in 1% G.T.
[7] = 500 mg/kg oral, suspension in 1% G.T.
[8] = 1000 mg/kg oral, suspension in 1% G.T.
[9] = suspension in 1% gum tragacanth
[10] = 40% heat inactivated horse serum, read-out: MIC E. Coli ATCC 8739 40% Serum
[11] = read-out: MIC E. Coli ATCC 8739 0% Serum
[12] = 125 mg/kg oral, aqueous solution
[13] = 250 mg/kg oral, aqueous solution
[14] = 500 mg/kg oral, aqueous solution
[15] = 1000 mg/kg oral, aqueous solution

## CCCCCCCNc1cc[n+](CCCCCCCCCC[n+]2ccc(NCCCCCCC)cc2)cc1 [Example 26, 1,10-bis-[4-(heptylamino)-1-pyridinium]decane dibromide]
A. niger 16404
  MIC: 2.98 µg/mL
Ps. aerug. MGH-2
  MIC: 11.9 µg/mL
S. Aureus Smith
  MIC: 0.37 µg/mL
S. Aureus ATCC 6538
  Fold Increase in MIC S. Aureus ATCC 6538: 16 fold
S. Aureus ATCC 6538; [3]
  MIC: 1.95 µg/mL
S. Aureus ATCC 6538; [4]
  MIC: 0.125 µg/mL
E. coli AB1932-1
  MIC: 0.75 µg/mL
E. coli Vogel
  MIC: 0.75 µg/mL
E. coli 100/B22
  MIC: 0.75 µg/mL
S. pyogen. C203
  MIC S. pyogen. C203: 1.95 µg/mL
T. menta. 9129
  MIC: 0.75 µg/mL
P. mirab. MGH-1
  MIC: 6 µg/mL
[1]; [5]
  Mortality 7 Days: 0/3
  Mortality 24 Hrs: 0/3
[1]; [6]
  Mortality 7 Days: 0/3
  Mortality 24 Hrs: 0/3
[1]; [7]
  Mortality 7 Days: 0/3
  Mortality 24 Hrs: 0/3
[1]; [8]
  Mortality 7 Days: 0/3
  Mortality 24 Hrs: 0/3
[2]; [9]
  LD50 at 168 h: > 1000 mg/kg
C. albicans Wisc.
  MIC: 1.49 µg/mL
C. albicans 10231
  MIC C. albicans 10231: 0.75 µg/mL
E. Coli ATCC 8739
  Fold Increase in MIC E. Coli ATCC 8739: 16 fold
E. Coli ATCC 8739; [10]
  MIC: 7.8 µg/mL
E. Coli ATCC 8739; [11]
  MIC: 0.5 µg/mL
K. pneum. 39645
  MIC: 1.49 µg/mL

## CCCCCCCNc1cc[n+](CCCCCCCC[n+]2ccc(NCCCCCCC)cc2)cc1 [Example 23]
A. niger 16404
  MIC A. niger 16404: 7.8 µg/mL
Ps. aerug. MGH-2
  MIC Ps. aerug. MGH-2: 31.3 µg/mL
S. Aureus Smith
  MIC S. Aureus Smith: 0.5 µg/mL
E. coli AB1932-1
  MIC E. coli AB1932-1: 1.0 µg/mL
E. coli Vogel
  MIC E. coli Vogel: 1.95 µg/mL
E. coli 100/B22; 18-20 hours at 37° C.
  MIC E. coli 100/B22: 1.95 µg/mL
S. pyogen. C203
  MIC S. pyogen. C203: 1.0 µg/mL
T. menta. 9129
  MIC T. menta. 9129: 1.95 µg/mL
P. mirab. MGH-1
  MIC P. mirab. MGH-1: 62.6 µg/mL
[1]; [12]
  Mortality 7 Days: 0/3
  Mortality 24 Hrs: 0/3
[1]; [13]
  Mortality 7 Days: 0/3
  Mortality 24 Hrs: 0/3
[1]; [14]
  Mortality 7 Days: 1/3
  Mortality 24 Hrs: 1/3
[1]; [15]
  Mortality 7 Days: 3/3
  Mortality 24 Hrs: 3/3
[2]; aqueous solution
  LD50 at 168 h: 625 mg/kg
C. albicans Wisc.
  MIC C. albicans Wisc.: 1.95 µg/mL
C. albicans 10231
  MIC C. albicans 10231: 1.0 µg/mL
K. pneum. 39645
  MIC K. pneum. 39645: 1.95 µg/mL

## CCCCCCCCCNc1cc[n+](CCCCCCCC[n+]2ccc(NCCCCCCCCC)cc2)cc1 [Example 29C, 1,8-bis-[4-(nonylamino)-1-pyridinium]octane dibromide]
A. niger 16404
  MIC: 7.8 µg/mL
Ps. aerug. MGH-2
  MIC: 7.8 µg/mL
S. Aureus Smith
  MIC: 1 µg/mL
S. Aureus ATCC 6538
  Fold Increase in MIC S. Aureus ATCC 6538: 16 fold
S. Aureus ATCC 6538; [3]
  MIC: 7.8 µg/mL
S. Aureus ATCC 6538; [4]
  MIC: 0.5 µg/mL
E. coli AB1932-1
  MIC: 1.95 µg/mL
E. coli Vogel
  MIC: 3.9 µg/mL
E. coli 100/B22
  MIC: 1.95 µg/mL
S. pyogen. C203
  MIC: 1.95 µg/mL
T. menta. 9129
  MIC: 1.95 µg/mL
P. mirab. MGH-1
  MIC: 3.9 µg/mL
[1]; [5]
  Mortality 7 Days: 0/3
  Mortality 24 Hrs: 0/3
[1]; [6]
  Mortality 7 Days: 0/3
  Mortality 24 Hrs: 0/3
[1]; [7]
  Mortality 7 Days: 0/3
  Mortality 24 Hrs: 0/3
[1]; [8]
  Mortality 7 Days: 0/3
  Mortality 24 Hrs: 0/3
[2]; [9]
  LD50 at 168 h: > 1000 mg/kg
C. albicans Wisc.
  MIC: 3.9 µg/mL
C. albicans 10231
  MIC: 3.9 µg/mL
E. Coli ATCC 8739
  Fold Increase in MIC E. Coli ATCC 8739: 16 fold
E. Coli ATCC 8739; [10]
  MIC: 62.5 µg/mL
E. Coli ATCC 8739; [11]
  MIC: 3.9 µg/mL
K. pneum. 39645
  MIC: 1.95 µg/mL

## CCCCC(CC)CNc1cc[n+](CCCCCCCCCCCC[n+]2ccc(NCC(CC)CCCC)cc2)cc1 (stereo not drawn) [Example 41C, 1,12-bis-[4-(2-ethylhexylamino)-1-pyridinium]dodecane dibromide]
A. niger 16404
  MIC: 3.9 µg/mL
Ps. aerug. MGH-2
  MIC: 3.9 µg/mL
S. Aureus Smith
  MIC: 0.5 µg/mL
S. Aureus ATCC 6538
  Fold Increase in MIC S. Aureus ATCC 6538: 32 fold
S. Aureus ATCC 6538; [3]
  MIC: 7.8 µg/mL
S. Aureus ATCC 6538; [4]
  MIC: 0.25 µg/mL
E. coli AB1932-1
  MIC: 1 µg/mL
E. coli Vogel
  MIC: 1 µg/mL
E. coli 100/B22
  MIC: 1 µg/mL
S. pyogen. C203
  MIC: 0.5 µg/mL
T. menta. 9129
  MIC: 1 µg/mL
P. mirab. MGH-1
  MIC: 3.9 µg/mL
[1]; [5]
  Mortality 7 Days: 0/3
  Mortality 24 Hrs: 0/3
[1]; [6]
  Mortality 7 Days: 0/3
  Mortality 24 Hrs: 0/3
[1]; [7]
  Mortality 7 Days: 0/3
  Mortality 24 Hrs: 0/3
[1]; [8]
  Mortality 7 Days: 0/3
  Mortality 24 Hrs: 0/3
[2]; [9]
  LD50 at 168 h: > 1000 mg/kg
C. albicans Wisc.
  MIC: 1 µg/mL
C. albicans 10231
  MIC: 1 µg/mL
E. Coli ATCC 8739
  Fold Increase in MIC E. Coli ATCC 8739: 64 fold
E. Coli ATCC 8739; [10]
  MIC: 62.5 µg/mL
E. Coli ATCC 8739; [11]
  MIC: 1 µg/mL
K. pneum. 39645
  MIC: 1.95 µg/mL
